The values below come from publication PMC11378297, “Discovery and Profiling of New Multimodal Phenylglycinamide Derivatives as Potent Antiseizure and Antinociceptive Drug Candidates” (ACS Chemical Neuroscience, 2024).

The test system of the experiment is glutamate and GABA concentrations in brain. Nature of the experiment: glutamate and GABA concentrations in hippocampus and cortex of PTZ-kindled mice. Type of experiment: in vivo, mouse. An excerpt:
After behavioral tests (FST, PTZ-induced kindling), we determined the changes in glutamate and GABA concentrations in the hippocampus and cortex. Since exposure to the FST can evoke various neurochemical alterations, two additional groups were employed in this experiment, i.e., control nonkindled mice that were exposed to the FST and naïve mice. No marked differences in both glutamate and GABA concentrations in the hippocampus were observed (Figure 5A). […] We found a significant increase in glutamate concentration in the cortex of mice subjected to the FST (p < 0.05 vs naive mice). […] Given that seizures are typically accompanied by elevated extracellular glutamate levels (an excitatory neurotransmitter), a decreased glutamate concentration in the cortex of kindled animals may appear to be an unexpected outcome. It should be highlighted, however, that the concentrations of glutamate and GABA in tissue homogenates rather than dialysate were measured in brain samples acquired 24 h following the previous PTZ dose, which may have an impact on the outcomes. On the other hand, decreased glutamate levels could be caused by the up-regulation of glutamate transporters, as the expression of glutamate transporters can increase following seizures.[48] For example, an increased expression of hippocampal GLT-1 was observed 24 h after kainic acid-induced status epilepticus in mice and PTZ-induced kindling in rats.[49] Moreover, similar to our findings, Szyndler et al.([50]) found decreased glutamate concentrations, with no changes in GABA concentrations, in homogenates of the hippocampus, striatum, and prefrontal cortex of PTZ-kindled rats.
Figure 5 Changes in glutamate and GABA concentrations in the hippocampus (A) and cortex (B). Data are shown as means + SD (n = 9–14 animals). Statistical significance was evaluated by one-way ANOVA followed by Tukey’s post hoc test: *p < 0.05, **p < 0.01, ***p < 0.001 (GraphPad Prism 8.4.3).
GABA and glutamate concentrations were determined using liquid chromatography tandem mass spectrometry (LC-MS/MS) in the mouse prefrontal cortex and hippocampus. Toronto Research Chemicals Inc. was the source of the standards for both analytes (Toronto, ON, Canada). GABA and glutamate stock standard solutions were made in methanol and deionized water, respectively, and kept cold at 4 °C. The stock solutions were suitably diluted to create a range of solution combinations with the appropriate concentrations. Prior to analysis, a hand-held pestle and glass tube homogenizer (Potter–Elvehjem PTFE pestle and glass tube, Sigma-Aldrich, St. Louis, MO, USA) were used to homogenize mouse brains in distilled water at a ratio of 50 μL/mg. Following a 10 min centrifugation at 8000g for 10 min at 4 °C, homogenates were diluted 10 times with 0.1% formic acid in MeCN from the supernatant. Samples (10 μL) were deproteinized with 80 μL of 0.1% formic acid in MeCN by shaking for 10 min (IKA Vibrax VXR, IKA Werke GmbH & Co. KG, Staufen im Breisgau, Germany) and centrifuged for 5 min at the speed of 8000g (Eppendorf miniSpin centrifuge) after isotope-labeled GABA-d6 and glutamate-d5 (Toronto Research Chemicals Inc., Toronto, ON, Canada) were added as internal standards (10 μL at the concentration of 500 ng/mL). The autosampler vials were filled with the acquired supernatants. […]

As to `CC(=O)N[C@@H](C(=O)N1CCN(c2cccc(OC(F)(F)F)c2)CC1)c1ccccc1` [(R)-32, (R)-N-(2-Oxo-1-phenyl-2-(4-(3-(trifluoromethoxy)phenyl)piperazin-1-yl)ethyl)acetamide], the “GABA concentration in the cortex” value (80 mg/kg, p < 0.001 vs PTZ-kindled control group) is listed as “significantly decreased”. Further, the “glutamate concentration in the cortex (PTZ-kindling-induced decrease)” value (80 mg/kg, p < 0.01 vs PTZ-kindled control group) is reported as “reversed this effect”. Besides, the “glutamate concentration in the hippocampus” value (vs nonkindled FST control group) is “slight decrease”.
